Assay results: patent publication US4383113A, “Agricultural sulfonamides” (E. I. Du Pont de Nemours and Company, priority 1981, dated 1983)

What was measured:
barnyardgrass [1] = assay: Test A post-emergence; type: in vivo, Echinochloa crusgalli; set-up: key: 0 = no effect, 10 = maximum effect; letter = response symbol
Source text: (§1) The activity of these compounds was discovered in a number of greenhouse and field tests. The ratings are based on a numerical scale extending from 0=no effect, to 10=maximum effect. The accompanying descriptive symbols have the following meanings:
(§2) Seeds of crabgrass (Digitaria spp.), barnyardgrass (Echinochloa crusgalli), wild oats (Avena fatua), cassia (Cassia tora), morningglory (Ipomoea spp.), cocklebur (Xanthium spp.), sorghum, corn, soybean, rice, wheat and nutsedge tubers (Cyperus rotundus) were planted in a growth medium and treated preemergence with a nonphytotoxic solvent solution of the compounds of Table XII. Other batches of seeds and tubers for all of the foregoing weed and crop plants were planted at the same time as controls. The control plantings were untreated; i.e., neither any compound nor any solvent was applied. At the same time, cotton having five leaves (including cotyledonary ones), bush beans with the third trifoliate leaf expanding, crabgrass with two leaves, barnyardgrass with two leaves, wild oats with two leaves, cassia with three leaves (including cotyledonary ones), morningglory with four leaves (including the cotyledonary ones), cocklebur with four leaves (including the cotyledonary ones), sorghum with four leaves, corn with four leaves, soybean with two cotyledonary leaves, rice with three leaves, wheat with one leaf, and nutsedge with three-five leaves were sprayed with a nonphytotoxic solvent solution of the compounds of Table XII. Other groups of all the same weed and crop plants were sprayed with the same nonphytotoxic solvent so as to provide control plants. Preemergence and postemergence treated plants and controls were maintained in a greenhouse for sixteen days, then all treated plants were compared with their respective controls and rated visually for response to treatment.

wild oats [2] = assay: Test A post-emergence; type: in vivo, Avena fatua; set-up: key: 0 = no effect, 10 = maximum effect; letter = response symbol
Source text: as §1, §2

wheat [3] = assay: Test A post-emergence; type: in vivo; set-up: key: 0 = no effect, 10 = maximum effect; letter = response symbol
Source text: as §1, §2

morningglory [4] = assay: Test A post-emergence; type: in vivo, Ipomoea spp.; set-up: key: 0 = no effect, 10 = maximum effect; letter = response symbol; details: 0.4 kg/ha
Source text: as §1, §2

cocklebur [5] = assay: Test A post-emergence; type: in vivo, Xanthium spp.; set-up: key: 0 = no effect, 10 = maximum effect; letter = response symbol; details: 0.4 kg/ha
Source text: as §1, §2

nutsedge = assay: Test A post-emergence; type: in vivo, Cyperus rotundus; set-up: key: 0 = no effect, 10 = maximum effect; letter = response symbol; details: 0.4 kg/ha
Source text: as §1, §2

crabgrass = assay: Test A post-emergence; type: in vivo, Digitaria spp.; set-up: key: 0 = no effect, 10 = maximum effect; letter = response symbol; details: 0.4 kg/ha
Source text: as §1, §2

cassia [6] = assay: Test A post-emergence; type: in vivo, Cassia tora; set-up: key: 0 = no effect, 10 = maximum effect; letter = response symbol; details: 0.4 kg/ha
Source text: as §1, §2

corn = assay: Test A post-emergence; type: in vivo; set-up: key: 0 = no effect, 10 = maximum effect; letter = response symbol; details: 0.4 kg/ha
Source text: as §1, §2

sorghum [7] = assay: Test A post-emergence; type: in vivo; set-up: key: 0 = no effect, 10 = maximum effect; letter = response symbol; details: 0.4 kg/ha
Source text: as §1, §2

bush bean = assay: Test A post-emergence; type: in vivo, bush beans; set-up: key: 0 = no effect, 10 = maximum effect; letter = response symbol; details: 0.4 kg/ha
morningglory [8] = assay: Test A pre-emergence; type: in vivo, Ipomoea spp.; set-up: key: 0 = no effect, 10 = maximum effect; letter = response symbol; details: 0.4 kg/ha
Source text: as §1, §2

cocklebur [9] = assay: Test A pre-emergence; type: in vivo, Xanthium spp.; set-up: key: 0 = no effect, 10 = maximum effect; letter = response symbol; details: 0.4 kg/ha
Source text: as §1, §2

barnyardgrass [10] = assay: Test A pre-emergence; type: in vivo, Echinochloa crusgalli; set-up: key: 0 = no effect, 10 = maximum effect; letter = response symbol; details: 0.4 kg/ha
Source text: as §1, §2

wild oats [11] = assay: Test A pre-emergence; type: in vivo, Avena fatua; set-up: key: 0 = no effect, 10 = maximum effect; letter = response symbol; details: 0.4 kg/ha
Source text: as §1, §2

sorghum [12] = assay: Test A pre-emergence; type: in vivo; set-up: key: 0 = no effect, 10 = maximum effect; letter = response symbol; details: 0.4 kg/ha
Source text: as §1, §2

soybean = assay: Test A pre-emergence; type: in vivo; set-up: key: 0 = no effect, 10 = maximum effect; letter = response symbol; details: 0.4 kg/ha
Source text: as §1, §2

wheat [13] = assay: Test A pre-emergence; type: in vivo; set-up: key: 0 = no effect, 10 = maximum effect; letter = response symbol; details: 0.4 kg/ha
Source text: as §1, §2

cassia [14] = assay: Test A pre-emergence; type: in vivo, Cassia tora; set-up: key: 0 = no effect, 10 = maximum effect; letter = response symbol; details: 0.4 kg/ha
Source text: as §1, §2

purple nutsedge = assay: Test F post-emergence; type: in vivo, Cyperus rotundus
Source text: Purple nutsedge tubers (Cyperus rotundus) were planted about 2 cm deep in Fallsington silt loam contained in plastic pots 10 cm in diameter. Five tubers were put in each pot. Compounds of this invention were sprayed dissolved in a non-phytotoxic solvent at a volume rate of 560 l/ha. in four different methods of treatment, i.e., soil surface spray, tuber/soil spray, soil incorporated and post-emergence. For the soil surface spray, the compounds were sprayed on the firmed soil surface immediately after planting. For the tuber/soil spray, the compounds were sprayed on the exposed tubers and subtending soil before the untreated covering soil was added. Soil incorporation treatments were mixed in the covering soil. Post-emergence treatments were sprayed on the nutsedge foliage and surrounding soil surface after the nutsedge had emerged and had reached the height of about 12 cm.
Immediately after spraying the surface spray, tuber/soil spray and soil incorporated treatments were misted with about 0.3 cm of water over a 90 minute period and then placed in the greenhouse. Post-emergence treatments were placed directly into the greenhouse and watered carefully so that treatments would not be washed from the foliage.

COC(=O)c1ccccc1S(=O)(=O)NC(=O)Nc1ncccn1 [drawing 418]
response rating (barnyardgrass [1]; 2 kg/ha): 9C | response rating (wild oats [2]; 2 kg/ha): 2G | response rating (wheat [3]; 2 kg/ha): 5G

CCC(C)OC(=O)c1ccccc1S(=O)(=O)NC(=O)Nc1nc(C)cc(OC)n1 (stereo not drawn) [drawing 424]
response rating (morningglory [4]): 10C | response rating (cocklebur [5]): 9C | response rating (nutsedge): 8G | response rating (crabgrass): 0 | response rating (wild oats [2]; 0.4 kg/ha): 8G

CCCCCCCCCCOC(=O)c1ccccc1S(=O)(=O)NC(=O)Nc1nc(C)cc(OC)n1 [drawing 428]
response rating (cassia [6]): 5G | response rating (nutsedge): 7G | response rating (crabgrass): 0 | response rating (wild oats [2]; 0.4 kg/ha): 5G | response rating (wheat [3]; 0.4 kg/ha): 3C

COc1cc(OC)nc(NC(=O)NS(=O)(=O)c2ccccc2C(=O)OC2CCCCC2)n1 [drawing 431]
response rating (morningglory [4]): 9C | response rating (cocklebur [5]): 9C | response rating (cassia [6]): 1C | response rating (corn): 7H | response rating (sorghum [7]): 8H | response rating (wheat [3]; 0.4 kg/ha): 1C

COC(=O)c1cc(Cl)ccc1S(=O)(=O)NC(=O)Nc1nc(OC)nc(OC)n1 [drawing 435]
response rating (morningglory [4]): 10C | response rating (cocklebur [5]): 10C | response rating (nutsedge): 10C | response rating (crabgrass): 1C | response rating (barnyardgrass [1]; 0.4 kg/ha): 3G | response rating (wild oats [2]; 0.4 kg/ha): 0 | response rating (corn): 9H | response rating (sorghum [7]): 8H | response rating (wheat [3]; 0.4 kg/ha): 0

COc1cc(C)nc(NC(=O)NS(=O)(=O)c2ccccc2C(=O)CCC(C)C)n1 [drawing 449]
response rating (bush bean): 10D | response rating (morningglory [4]): 10C | response rating (barnyardgrass [1]; 0.4 kg/ha): 9C | response rating (corn): 9H

COc1nc(C)nc(NC(=O)NS(=O)(=O)c2ccccc2C(=O)OC(C)Cc2ccccc2)n1 (stereo not drawn) [drawing 457]
response rating (bush bean): 9C | response rating (morningglory [4]): 10C | response rating (cocklebur [5]): 9C | response rating (cassia [6]): 10C | response rating (nutsedge): 7G | response rating (crabgrass): 9C | response rating (barnyardgrass [1]; 0.4 kg/ha): 9C | response rating (corn): 9C

COc1nc(C)nc(NC(=O)NS(=O)(=O)c2ccccc2C(=O)OC(C)CCl)n1 (stereo not drawn) [drawing 459]
response rating (bush bean): 9C | response rating (morningglory [4]): 10C | response rating (cocklebur [5]): 9C | response rating (wild oats [2]; 0.4 kg/ha): 3G | response rating (wheat [3]; 0.4 kg/ha): 2G

COc1nc(C)nc(NC(=O)NS(=O)(=O)c2ccccc2C(=O)OCc2ccc(Cl)cc2)n1 [drawing 460]
response rating (morningglory [4]): 9C | response rating (nutsedge): 0 | response rating (wild oats [2]; 0.4 kg/ha): 2C | response rating (wheat [3]; 0.4 kg/ha): 0

COC(=O)c1cc([N+](=O)[O-])ccc1S(=O)(=O)NC(=O)Nc1nc(C)cc(OC)n1 [drawing 462]
response rating (bush bean): 9C | response rating (morningglory [4]): 9C | response rating (cocklebur [5]): 9C | response rating (cassia [6]): 9C | response rating (nutsedge): 9G

COc1cc(OC)nc(NC(=O)NS(=O)(=O)c2ccccc2C(=O)OCCCl)n1 [drawing 487]
response rating (morningglory [8]): 9G | response rating (cocklebur [9]): 9G | response rating (barnyardgrass [10]): 9H | response rating (wild oats [11]): 9G | response rating (sorghum [12]): 9H | response rating (soybean): 9H | response rating (wheat [13]): 9G

COc1cc(C)nc(NC(=O)NS(=O)(=O)c2ccccc2C(=O)OC2CCOC2)n1 (stereo not drawn) [drawing 513]
response rating (morningglory [8]): 9G | response rating (cocklebur [9]): 9G | response rating (cassia [14]): 9G | response rating (barnyardgrass [10]): 9H | response rating (soybean): 9H | response rating (wheat [13]): 9H

COc1cc(C)nc(NC(=O)NS(=O)(=O)c2ccccc2C(=O)OCCOCCOCCCl)n1 [drawing 515]
response rating (morningglory [8]): 9G | response rating (cocklebur [9]): 9G | response rating (cassia [14]): 9C | response rating (barnyardgrass [10]): 9H | response rating (soybean): 9H

COc1cc(C)nc(NC(=O)NS(=O)(=O)c2ccccc2C(=O)NCc2ccccc2)n1 [drawing 531]
response rating (morningglory [8]): 9G | response rating (cocklebur [9]): 8G | response rating (cassia [14]): 9G | response rating (barnyardgrass [10]): 9H | response rating (wild oats [11]): 3C | response rating (soybean): 9H | response rating (wheat [13]): 9H

CNC(=O)c1ccccc1S(=O)(=O)NC(=O)Nc1nc(C)cc(OC)n1 [drawing 533]
response rating (cocklebur [9]): 9G | response rating (cassia [14]): 9G | response rating (soybean): 9H | response rating (wheat [13]): 9H

COc1cc(C)nc(NC(=O)NS(=O)(=O)c2ccccc2C(=O)SC)n1 [drawing 544]
response rating (morningglory [8]): 9G | response rating (cocklebur [9]): 9G | response rating (cassia [14]): 9G | response rating (sorghum [12]): 9H | response rating (soybean): 9H

COC(=O)c1ccccc1S(=O)(=O)NC(=O)Nc1nc(C)cc(C)n1 [drawing 591]
response rating after 4 weeks (purple nutsedge; .008 kg/ha): 9C | response rating after 4 weeks (purple nutsedge; .016 kg/ha): 9C | response rating after 4 weeks (purple nutsedge; .032 kg/ha): 10C | response rating after 4 weeks (purple nutsedge; .064 kg/ha): 10C

COC(=O)c1ccccc1S(=O)(=O)NC(=O)Nc1nc(C)cc(OC)n1 [drawing 592]
response rating after 4 weeks (purple nutsedge; .008 kg/ha): 9C | response rating after 4 weeks (purple nutsedge; .016 kg/ha): 9C | response rating after 4 weeks (purple nutsedge; .032 kg/ha): 10C | response rating after 4 weeks (purple nutsedge; .064 kg/ha): 10C

COC(=O)c1ccccc1S(=O)(=O)NC(=O)Nc1nc(OC)cc(OC)n1 [drawing 593]
response rating after 4 weeks (purple nutsedge; .004 kg/ha): 8C | response rating after 4 weeks (purple nutsedge; .008 kg/ha): 10C | response rating after 4 weeks (purple nutsedge; .016 kg/ha): 10C | response rating after 4 weeks (purple nutsedge; .032 kg/ha): 9C | response rating after 4 weeks (purple nutsedge; .064 kg/ha): 10C

COC(=O)c1ccccc1S(=O)(=O)NC(=O)Nc1nc(C)nc(OC)n1 [drawing 594]
response rating after 4 weeks (purple nutsedge; .004 kg/ha): 0 | response rating after 4 weeks (purple nutsedge; .008 kg/ha): 2G | response rating after 4 weeks (purple nutsedge; .016 kg/ha): 2G

COC(=O)c1ccccc1S(=O)(=O)NC(=O)Nc1nc(OC)nc(OC)n1 [drawing 595]
response rating after 4 weeks (purple nutsedge; .004 kg/ha): 0 | response rating after 4 weeks (purple nutsedge; .008 kg/ha): 0 | response rating after 4 weeks (purple nutsedge; .032 kg/ha): 3G

CCOC(=O)c1ccccc1S(=O)(=O)NC(=O)Nc1nc(OC)cc(OC)n1 [drawing 598]
response rating after 4 weeks (purple nutsedge; .008 kg/ha): 10C | response rating after 4 weeks (purple nutsedge; .032 kg/ha): 10C | response rating after 4 weeks (purple nutsedge; .125 kg/ha): 10C | response rating after 4 weeks (purple nutsedge; .25 kg/ha): 10C

CCCCOC(=O)c1ccccc1S(=O)(=O)NC(=O)Nc1nc(C)cc(OC)n1 [drawing 599]
response rating after 4 weeks (purple nutsedge; .125 kg/ha): 8C

COc1cc(C)nc(NC(=O)NS(=O)(=O)c2ccccc2C(=O)OC(C)C)n1 [drawing 601]
response rating after 4 weeks (purple nutsedge; .008 kg/ha): 10C | response rating after 4 weeks (purple nutsedge; .032 kg/ha): 10C | response rating after 4 weeks (purple nutsedge; .125 kg/ha): 10C | response rating after 4 weeks (purple nutsedge; .25 kg/ha): 10C

COc1cc(OC)nc(NC(=O)NS(=O)(=O)c2ccccc2C(=O)OC(C)C)n1 [drawing 602]
response rating after 4 weeks (purple nutsedge; .008 kg/ha): 10C | response rating after 4 weeks (purple nutsedge; .032 kg/ha): 10C | response rating after 4 weeks (purple nutsedge; .125 kg/ha): 10C | response rating after 4 weeks (purple nutsedge; .25 kg/ha): 10C

COC(=O)c1cc(Cl)ccc1S(=O)(=O)NC(=O)Nc1nc(OC)cc(OC)n1 [drawing 605]
response rating after 4 weeks (purple nutsedge; .008 kg/ha): 10C | response rating after 4 weeks (purple nutsedge; .032 kg/ha): 10C | response rating after 4 weeks (purple nutsedge; .125 kg/ha): 10C
